Experimental data taken from patent US10821097B2, “DBH inhibitors for treating or preventing memory loss” (Brandeis University, priority 2015, dated 2020).

Tests used:
[1] = up to 120 mg/day; cited from earlier work
DBH [2] = target: T1, DBH (Rattus norvegicus, UniProt Q05754); conditions: cited from earlier work; for blood-brain barrier crossing, indicated by effect of injections on brain dopamine levels: Antabuse 100 mg/kg, Nepicastat 50 mg/kg, intraperitoneal
T1 construct: In rat studies, Antabuse (100 mg/kg) and Nepicastat (50 mg/kg) were injected intraperitoneally; host or cells: rat, in vivo (endogenous enzyme)
T1 sequence (Q05754 1-620): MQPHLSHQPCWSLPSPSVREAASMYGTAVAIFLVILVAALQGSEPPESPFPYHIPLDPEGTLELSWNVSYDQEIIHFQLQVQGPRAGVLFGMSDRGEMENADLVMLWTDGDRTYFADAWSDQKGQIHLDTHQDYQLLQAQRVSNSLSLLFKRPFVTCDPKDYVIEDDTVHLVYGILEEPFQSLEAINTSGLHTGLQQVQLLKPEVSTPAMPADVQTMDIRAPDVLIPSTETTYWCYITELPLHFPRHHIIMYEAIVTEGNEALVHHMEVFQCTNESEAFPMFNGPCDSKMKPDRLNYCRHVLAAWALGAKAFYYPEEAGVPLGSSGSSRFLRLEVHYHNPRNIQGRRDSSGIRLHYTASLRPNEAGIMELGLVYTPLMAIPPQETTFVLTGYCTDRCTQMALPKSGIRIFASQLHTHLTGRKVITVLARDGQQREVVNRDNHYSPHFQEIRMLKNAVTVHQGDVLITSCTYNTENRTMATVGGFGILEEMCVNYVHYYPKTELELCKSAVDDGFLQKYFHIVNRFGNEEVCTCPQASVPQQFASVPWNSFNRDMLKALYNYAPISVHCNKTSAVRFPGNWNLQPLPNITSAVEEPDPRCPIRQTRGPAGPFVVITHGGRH

DBH [3] = conditions: in vivo; cited from earlier work
LC = assay: event arena memory test in KORD mice with the LC inhibited by SALB; format: in vivo; conditions: SALB subcutaneously 10 minutes before encoding trial
D1R = assay: light-stimulated dopamine release from LC axons, fEPSP in CA1 of hippocampal slices; format: cell-based; conditions: 10 uM, n=4, Schaffer collateral stimulation
Excerpt: The chemogenetic approach allows the acute memory deficits produced by graded decrease in LC function to be measured. This model then provides a rigorous and rapid screening method to determine whether the resulting memory deficits can be reversed by agents that enhance dopamine release (with or without noradrenaline stimulants). Results in FIG. 2 document the role of LC axons in producing functionally important dopamine release. The experiments were done in CA1 using synaptic stimulation of Schaffer collaterals to measure synaptic strength. FIG. 2, left: brief light stimulation of the hippocampus (arrow) produces a long-lasting enhancement of the fEPSP (normalized increase in charge) (n=5). This light-stimulated release of dopamine replicates the effect of direct application of dopamine (Huang and Kandel, 1995). […] Stimulation protocol: three sets of ˜18 Hz stimulation (5 msec light pulses)=a total of 60 pulses/set; 1 minute between sets. The LC was injected in vivo with AAV virus that produced channel-rhodopsin in cells containing tyrosine hydroxylase, an enzyme in the dopamine and noradrenaline synthesis pathway (see FIG. 1). The selective expression in noradrenergic cells in the LC is due to Cre expression driven by a tyrosine hydroxylase promoter. […] The response of CA1 pyramidal cells was measured by the field EPSP (fEPSP). […]

[4] = IP, suspension in sterile saline

## NCc1c[nH]c(=S)n1[C@H]1CCc2c(F)cc(F)cc2C1 [Nepicastat, 5-(aminomethyl)-1-[(2S)-5,7-difluoro-1,2,3,4-tetrahydronaphthalen-2-yl]-1,3-dihydro-2H-imidazole-2-thione]
[1]
  tolerability: well tolerated
DBH [2]
  blood-brain barrier crossing, indicated by effect of injections on brain dopamine levels: cross the blood-brain barrier
DBH [2]; IP
  dose reported to match the 100 mg/kg dose of Antabuse on DBH: 50 mg/kg
DBH [3]
  effect on dopamine concentration and/or dopamine release: increase the concentration of dopamine and/or increase dopamine release

## COC(=O)[C@@H]1C[C@H](O)C(=O)[C@H]2[C@@]1(C)CC[C@H]1C(=O)O[C@H](c3ccoc3)C[C@]21C [SALB, salvinorin B]
LC
  24 hr memory: strongly reduce

## CN1CCc2cc(Cl)c(O)cc2[C@H]2c3ccccc3CC[C@@H]21 [SCH39166]
D1R
  enhancement of the fEPSP by light stimulation of LC axons in the presence of the antagonist: no enhancement

## CCN(CC)C(=S)SSC(=S)N(CC)CC [Disulfiram, 1,1′,1″,1′″-[disulfanediylbis(carbonothioylnitrilo)]tetraethane]
DBH [2]
  blood-brain barrier crossing, indicated by effect of injections on brain dopamine levels: cross the blood-brain barrier
DBH [2]; [4]
  highest effective dose that didn't affect operant responses: 100 mg/kg
  lowest effective concentration: 10 mg/kg
DBH [3]
  effect on dopamine concentration and/or dopamine release: increase the concentration of dopamine and/or increase dopamine release
